Measurements from patent US20110182830A1, “INHALATION DRUG PRODUCTS, SYSTEMS AND USES” (Schering Corporation, priority 2008, published 2011).

Key:
[1] = Andersen Cascade Impactor (ACI) with USP throat, aerodynamic particle size distribution, pMDI alone vs pMDI with chamber, continuous flow 28.3 L/min; format: physicochemical; conditions: for reduction in FPD (μg) as compared to the pMDI alone: pMDI with OPTICHAMBER
Procedure: Pressurized MDI products were tested alone and as an inhalation system/drug product which included a pMDI in combination with one chamber such as the A[…]-STAT Plus™ (volume=148 mL), A[…]® (volume=[…]), VORTEX® AND OPTICHAMBER®.
An Andersen Cascade Impactor (ACI) with USP throat was used to measure aerodynamic particle size distribution. Two impactor configurations were used for the two flow rates. Plates 0 through 7 were used for sampling at 28.3 L/min; plates—1 through 6 were used for sampling at 60 L/min. The effective cut off diameters for the plates in each configuration were provided by the manufacturer. Total delivered dose values report the total mass of active ingredient recovered from the impactor (throat, plates and filter). Fine particle dose values report the total mass of active ingredient with aerodynamic diameter less than 4.7 μm.
FIGS. 1 and 2 show throat, fine particle dose and total delivered dose recoveries for both active ingredients, as measured by ACI under continuous flow at 28.3 L/min. Recoveries are shown for different spacer devices and the pMDI, as indicated in the legends. Data points represent mean values (n=5); error bars indicate one standard deviation.

[2] = cited from earlier work
[3] = cited from earlier work; remark: listed apart in the source
[4] = pMDI with AEROCHAMBER Z-STAT PLUS

Row | Compound | difference in fine particle dose (FPD, <4.7 μm) vs pMDI alone ([1]; pMDI with AEROCHAMBER MAX) [%] | difference in fine particle dose (FPD, <4.7 μm) vs pMDI alone [1, 4] | reduction in FPD (μg) as compared to the pMDI alone [1] | difference in fine particle dose (FPD, <4.7 μm) vs pMDI alone ([1]; pMDI with VORTEX) [%] | solubility in acetone [2] | solubility in diethyl ether ([2]; diethyl ether) | solubility in ethanol [2] | solubility in ethyl acetate ([2]; ethyl acetate) | solubility in glacial acetic acid ([2]; glacial acetic acid) | solubility in isopropanol [2] | solubility in methanol [2] | solubility in water [2] | reduction of deposition in the throat portion of the ACI ([1]; use of several of the chambers vs pMDI alone) | solubility in chloroform ([2]; chloroform) | solubility in tetrahydrofuran ([2]; tetrahydrofuran) | partition coefficient between octanol and water [3]
1 | COc1ccc(CC(C)NCC(O)c2ccc(O)c(NC=O)c2)cc1.O.O.O=C(O)/C=C/C(=O)O (racemic) [formoterol fumarate, (±)2-hydroxy-5-[(1RS)-1-hydroxy-2-[[(1RS)-2-(4-methoxyphenyl)-1methylethyl]-amino]ethyl] formanilide fumarate dihydrate] | ≤ 15 | less than 5% | about 30% | ≤ 20 | practically insoluble | practically insoluble | sparingly soluble | practically insoluble | freely soluble | sparingly soluble | soluble | slightly soluble |  |  |  | 
2 | C[C@@H]1C[C@H]2[C@@H]3CCC4=CC(=O)C=C[C@]4(C)[C@@]3(Cl)[C@@H](O)C[C@]2(C)[C@@]1(OC(=O)c1ccco1)C(=O)CCl [mometasone furoate, 9,21-Dichloro-11(beta), 17-dihydroxy-16(alpha)-methylpregna-1,4-diene-3,20-dione 17-(2 furoate)] | ≤ 15 | less than 5% | about 30% | ≤ 20 | soluble |  | slightly soluble |  |  | slightly soluble | slightly soluble | practically insoluble | about 90% | soluble | freely soluble | greater than 5000
